This note sets out measurements from EP4660185A1, “NAV1.7- AND/OR NAV1.8-INHIBITING AMIDES, PROCESSES FOR THE PREPARATION THEREOF, COMPOSITIONS, USES, METHODS FOR TREATMENT USING SAME, AND KITS” (Eurofarma Laboratórios S.A., priority 2023, dated 2024).

Test [1] concerns the target T1, human sodium channels Nav 1.7 (Homo sapiens, UniProt Q15858).
T1 construct: expressed in transfected cells
Nature of the test: Automated whole-cell voltage-clamp (ScreenPatch 384P) sodium current block, Nav 1.7. Type of test: cell-based. The settings on record: CHO cells stably expressing human Nav 1.7; holding -100 mV, inactivation step -40 mV for 8 seconds, test step 0 mV (TP1A); exposure at least five minutes, room temperature; mean where tested in two or more assays; read-out: Nav1.7 IC50. As to the method:
(§1) Biological assays were performed on Chinese hamster ovary (CHO) cells that express human sodium channels Nav 1.8 or Nav 1.7 in a stable manner.
(§2) The experimental protocol voltage-clamp using the whole cell configuration was established on the automated ScreenPatch® 384P platform (SP384PE, Nanion Technologies, Livingston, NJ) and the results were recorded with a Nanion 384-well Patch Clamp chip (NPC) (Nanion Technologies, Livingston, NJ).
(§3) Compounds of Formula Ia and Formula Ib were diluted in eight concentrations in the extracellular solution composed of saline solution, buffered with HEPES (mM): NaCl, 137; KCl, 4; CaCl2, 3,8; MgCl2, 1; HEPES, 10; Glucose, 10; pH 7.4. The […], 50; CsF, 90; MgCl2, 5; EGTA, 5; HEPES, 10; pH 7.2. The duration of exposure of each compound with cells expressing Nav 1.7 or Nav 1.8 was at least five minutes, and the assays were performed at room temperature.
(§4) The measurements of the sodium currents of Nav 1.8 and Nav 1.7 were obtained using the voltage protocol described below: A holding voltage of -100 mV was established followed by an inactivation voltage step at -40 mV for 8 seconds, followed by a step of -100 mV for 20 ms, followed by a 20 ms step for 10 mV for Nav 1.8 or 0 mV for Nav 1.7 (TP1A) before returning to the holding voltage of -100 mV.
(§5) The protocol was repeated at a frequency of 0.05 Hz and the amplitude of the current was quantified throughout the recording of the TP1A phase. The variation in the amplitude of the peak current was evaluated according to the formula described below, after exposing the cells expressing the channels to each concentration of the different compounds: % Block = (1−(ITP1A,molecule/ITP1A,basal)×100%, [formula] wherein ITP1A,basal and ITP1A,molecule represent the peaks of sodium current input into TP1A before exposure to the compound and in the presence of the compound, respectively.
(§6) Data were obtained by nonlinear regression (nonlinear least squares) with XLfit for Excel (Microsoft, Redmond, WA).
(§7) The compounds were tested in at least one assay to obtain the value of CI50. For compounds that were tested in two or more assays, the results are described as the mean of the CI50 values.

The target of test [2] is T2, human sodium channels Nav 1.8 (Homo sapiens, UniProt Q9Y5Y9).
T2 construct: expressed in transfected cells
T2 sequence (Q9Y5Y9 whole entry): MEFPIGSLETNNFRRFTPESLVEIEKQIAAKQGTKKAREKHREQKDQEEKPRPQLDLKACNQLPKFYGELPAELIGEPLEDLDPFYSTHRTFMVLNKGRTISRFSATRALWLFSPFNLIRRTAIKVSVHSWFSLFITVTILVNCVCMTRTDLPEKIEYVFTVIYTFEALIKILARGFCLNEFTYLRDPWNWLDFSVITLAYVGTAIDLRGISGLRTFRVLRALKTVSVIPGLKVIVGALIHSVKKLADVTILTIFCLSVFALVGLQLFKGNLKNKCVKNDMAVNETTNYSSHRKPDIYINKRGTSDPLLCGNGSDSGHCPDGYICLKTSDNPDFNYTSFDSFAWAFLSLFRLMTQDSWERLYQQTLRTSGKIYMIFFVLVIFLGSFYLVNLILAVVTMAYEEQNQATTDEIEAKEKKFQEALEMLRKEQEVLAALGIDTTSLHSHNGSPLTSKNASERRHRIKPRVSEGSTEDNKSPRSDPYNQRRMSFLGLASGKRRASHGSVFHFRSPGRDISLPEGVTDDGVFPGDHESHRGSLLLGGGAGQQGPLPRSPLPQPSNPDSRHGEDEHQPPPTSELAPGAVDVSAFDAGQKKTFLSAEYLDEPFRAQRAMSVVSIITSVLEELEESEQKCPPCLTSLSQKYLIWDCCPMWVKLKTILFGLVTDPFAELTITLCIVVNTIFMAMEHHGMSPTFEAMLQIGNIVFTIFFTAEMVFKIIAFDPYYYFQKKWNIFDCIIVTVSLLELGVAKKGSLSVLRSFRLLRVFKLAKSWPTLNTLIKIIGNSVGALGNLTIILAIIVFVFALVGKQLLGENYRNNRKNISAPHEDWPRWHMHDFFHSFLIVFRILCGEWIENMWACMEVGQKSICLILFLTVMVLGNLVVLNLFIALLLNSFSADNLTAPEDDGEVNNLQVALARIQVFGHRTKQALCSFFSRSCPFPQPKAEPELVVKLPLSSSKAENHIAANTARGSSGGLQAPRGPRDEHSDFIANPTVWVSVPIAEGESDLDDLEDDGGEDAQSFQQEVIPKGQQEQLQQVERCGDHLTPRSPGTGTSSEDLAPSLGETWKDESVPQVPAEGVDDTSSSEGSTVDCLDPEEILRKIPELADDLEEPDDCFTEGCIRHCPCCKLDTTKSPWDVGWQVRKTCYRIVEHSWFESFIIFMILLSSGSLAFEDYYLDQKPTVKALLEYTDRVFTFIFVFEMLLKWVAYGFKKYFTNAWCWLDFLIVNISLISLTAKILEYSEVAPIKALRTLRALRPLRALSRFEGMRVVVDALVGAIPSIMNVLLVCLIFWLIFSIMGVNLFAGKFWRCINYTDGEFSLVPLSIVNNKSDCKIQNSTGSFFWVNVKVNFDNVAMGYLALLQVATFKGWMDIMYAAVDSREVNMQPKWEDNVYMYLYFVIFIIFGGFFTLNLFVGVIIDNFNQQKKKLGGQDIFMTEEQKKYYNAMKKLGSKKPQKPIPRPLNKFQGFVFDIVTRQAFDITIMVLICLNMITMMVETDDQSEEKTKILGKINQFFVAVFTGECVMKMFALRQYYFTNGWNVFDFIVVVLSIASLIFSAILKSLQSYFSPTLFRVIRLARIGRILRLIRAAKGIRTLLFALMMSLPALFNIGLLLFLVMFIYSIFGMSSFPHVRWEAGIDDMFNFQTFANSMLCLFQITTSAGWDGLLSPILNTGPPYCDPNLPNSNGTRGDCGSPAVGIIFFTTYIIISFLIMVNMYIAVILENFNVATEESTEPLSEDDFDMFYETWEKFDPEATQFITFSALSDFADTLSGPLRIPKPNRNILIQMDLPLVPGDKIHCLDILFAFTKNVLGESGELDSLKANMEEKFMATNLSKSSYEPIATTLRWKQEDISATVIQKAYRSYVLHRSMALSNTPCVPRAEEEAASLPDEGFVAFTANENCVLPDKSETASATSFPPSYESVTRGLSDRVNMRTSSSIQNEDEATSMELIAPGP
Nature of the test: Automated whole-cell voltage-clamp (ScreenPatch 384P) sodium current block, Nav 1.8. Type of test: cell-based. The note with it: CHO cells stably expressing human Nav 1.8; holding -100 mV, inactivation step -40 mV for 8 seconds, test step 10 mV (TP1A); exposure at least five minutes, room temperature; mean where tested in two or more assays; read-out: Nav1.8 IC50. As to the method:
as §1, §2, §3, §4, §5, §6, §7

For orientation: IC50 means the midpoint of a concentration-inhibition curve.

T1 sequence (Q15858 whole entry): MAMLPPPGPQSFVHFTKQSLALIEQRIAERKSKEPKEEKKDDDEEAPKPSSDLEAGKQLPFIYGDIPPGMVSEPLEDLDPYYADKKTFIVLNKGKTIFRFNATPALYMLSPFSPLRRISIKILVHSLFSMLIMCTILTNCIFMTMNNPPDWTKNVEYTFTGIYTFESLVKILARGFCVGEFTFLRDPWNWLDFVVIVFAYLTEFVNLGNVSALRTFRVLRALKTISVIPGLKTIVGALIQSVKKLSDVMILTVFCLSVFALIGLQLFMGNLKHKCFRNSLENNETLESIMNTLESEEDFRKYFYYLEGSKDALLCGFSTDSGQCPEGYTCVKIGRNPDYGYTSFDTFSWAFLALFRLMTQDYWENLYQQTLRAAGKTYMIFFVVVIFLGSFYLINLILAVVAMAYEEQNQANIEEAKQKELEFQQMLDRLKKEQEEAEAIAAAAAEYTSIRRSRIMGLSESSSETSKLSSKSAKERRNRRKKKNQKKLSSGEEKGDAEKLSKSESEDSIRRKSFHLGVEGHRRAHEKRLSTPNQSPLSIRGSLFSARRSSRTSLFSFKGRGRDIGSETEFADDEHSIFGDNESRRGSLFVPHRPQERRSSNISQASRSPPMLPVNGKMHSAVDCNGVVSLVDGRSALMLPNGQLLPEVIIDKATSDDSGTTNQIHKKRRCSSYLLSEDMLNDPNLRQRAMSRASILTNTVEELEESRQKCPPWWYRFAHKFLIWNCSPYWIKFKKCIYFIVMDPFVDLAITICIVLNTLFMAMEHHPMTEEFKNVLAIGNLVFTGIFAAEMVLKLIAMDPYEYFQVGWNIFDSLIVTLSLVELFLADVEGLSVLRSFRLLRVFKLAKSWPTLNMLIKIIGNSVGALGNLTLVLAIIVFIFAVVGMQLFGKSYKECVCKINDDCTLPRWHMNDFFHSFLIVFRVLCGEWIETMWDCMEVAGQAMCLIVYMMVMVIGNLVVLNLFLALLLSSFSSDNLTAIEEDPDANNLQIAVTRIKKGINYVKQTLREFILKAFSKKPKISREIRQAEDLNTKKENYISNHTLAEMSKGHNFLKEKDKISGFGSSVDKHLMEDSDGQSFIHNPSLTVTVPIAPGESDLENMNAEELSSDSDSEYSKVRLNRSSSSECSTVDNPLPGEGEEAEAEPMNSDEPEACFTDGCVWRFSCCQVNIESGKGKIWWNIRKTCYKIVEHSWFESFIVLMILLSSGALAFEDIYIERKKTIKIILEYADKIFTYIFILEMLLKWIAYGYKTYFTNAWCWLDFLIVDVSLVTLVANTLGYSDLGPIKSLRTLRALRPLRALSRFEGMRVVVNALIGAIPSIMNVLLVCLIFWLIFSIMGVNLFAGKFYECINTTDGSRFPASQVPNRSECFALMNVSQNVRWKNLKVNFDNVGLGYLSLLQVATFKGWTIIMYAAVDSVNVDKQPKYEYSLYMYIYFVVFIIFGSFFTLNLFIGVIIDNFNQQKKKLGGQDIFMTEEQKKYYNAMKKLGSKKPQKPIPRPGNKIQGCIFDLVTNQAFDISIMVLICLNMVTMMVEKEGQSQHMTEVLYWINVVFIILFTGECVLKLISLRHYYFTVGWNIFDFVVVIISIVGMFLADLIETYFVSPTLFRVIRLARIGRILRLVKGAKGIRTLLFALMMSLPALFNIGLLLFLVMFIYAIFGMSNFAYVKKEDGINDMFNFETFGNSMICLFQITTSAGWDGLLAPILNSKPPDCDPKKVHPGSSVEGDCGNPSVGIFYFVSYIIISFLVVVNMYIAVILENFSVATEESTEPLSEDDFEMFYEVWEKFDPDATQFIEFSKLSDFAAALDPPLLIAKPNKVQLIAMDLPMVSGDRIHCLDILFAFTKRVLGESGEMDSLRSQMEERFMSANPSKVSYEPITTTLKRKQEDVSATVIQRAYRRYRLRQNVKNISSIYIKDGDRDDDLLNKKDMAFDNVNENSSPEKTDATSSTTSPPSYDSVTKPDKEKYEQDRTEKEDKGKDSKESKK

Consider `CCOc1ccc(-c2cncc(C(=O)Nc3nc4c(OC)ccc(F)c4n3C)n2)cn1` [compound 66], for which the IC50 in test [1] and in test [2] was over 1000 nM throughout.

Turning to `CCOc1ccc(-c2cncc(C(=O)Nc3nc4c(F)ncc(OC)c4o3)n2)cn1` [compound 67], the IC50 in test [1] and in test [2] was over 1000 nM each time.

As to `CCOc1ccc(-c2cncc(C(=O)Nc3cn4c(OC)ccc(F)c4n3)n2)cn1` [compound 68], the IC50 in test [1] and in test [2] was over 1000 nM in each case.

`CCOc1ccc(-c2cncc(C(=O)Nc3cc4c(F)ccc(OC)c4[nH]3)n2)cn1` [compound 69]: the IC50 was over 1000 nM in test [1] and under 500 nM in test [2].

Take `CCOc1ccc(-c2cncc(C(=O)Nc3cc4c(F)ccc(OC)c4n3C)n2)cn1` [compound 70]: the IC50 in test [1] and in test [2] was over 1000 nM in each case.

On to `CCOc1ccc(-c2cncc(C(=O)N(C)c3cc4c(F)ccc(OC)c4[nH]3)n2)cn1` [compound 71], for which the IC50 in test [1] and in test [2] was over 1000 nM each time.

Consider `CCOc1ccc(-c2cncc(C(=O)Nc3cc4cccc(OC)c4[nH]3)n2)cn1` [compound 72], for which the 50% inhibitory concentration (IC50) in test [1] and in test [2] was over 1000 nM each time.

Turning to `CCOc1ccc(-c2cncc(C(=O)Nc3cc4c(OC)cccc4[nH]3)n2)cn1` [compound 73], the half-maximal inhibitory concentration (IC50) in test [1] and in test [2] was over 1000 nM throughout.

As for `CCOc1ccc(-c2cncc(C(=O)Nc3cc4c(OC)ccc(F)c4[nH]3)n2)cn1` [compound 74], the IC50 was 500 to 1000 nM in test [1] and under 500 nM in test [2].

Turning to `CCOc1ccc(-c2cncc(C(=O)Nc3cc4c(OC)ccc(F)c4n3C)n2)cn1` [compound 75], the IC50 in test [1] and in test [2] was over 1000 nM throughout.

For the compound `CCOc1ccc(-c2cncc(C(=O)Nc3cc4c(F)ccc(OC)c4[nH]3)n2)cc1` [compound 76], the IC50 in test [1] and in test [2] was over 1000 nM in each case.

Consider `CCOc1ccc(-c2cncc(C(=O)Nc3cc4c(OC)ccc(F)c4[nH]3)n2)cc1` [compound 77], for which the IC50 in test [1] and in test [2] was over 1000 nM throughout.

For `CCOc1ccc(-c2cncc(C(=O)N[C@H]3CCc4c(OC)ccc(F)c4C3)n2)cn1` [compound 78], the IC50 in test [1] is over 1000 nM; in test [2], under 500 nM.

As to `CCOc1ccc(-c2cncc(C(=O)N[C@@H]3CCc4c(OC)ccc(F)c4C3)n2)cn1` [compound 79], the IC50 in test [1] and in test [2] was 500 to 1000 nM in each case.

In the case of `CCOc1ccc(-c2cncc(C(=O)NCc3ccc4ccc(OC)cn34)n2)cn1` [compound 80], the figures for the IC50 in test [1] and in test [2] were over 1000 nM and under 500 nM, respectively.

With `CCOc1ccc(-c2cncc(C(=O)N[C@@H]3Cc4c(F)ccc(OC)c4C3)n2)cn1` [compound 81], the IC50 is over 1000 nM in test [1] and under 500 nM in test [2].

As for `CCOc1ccc(-c2cncc(C(=O)N[C@H]3Cc4c(F)ccc(OC)c4C3)n2)cn1` [compound 82], the figures for the IC50 in test [1] and in test [2] were over 1000 nM and 500 to 1000 nM, respectively.

As to `CCOc1ccc(-c2cncc(C(=O)N[C@H]3Cc4c(OC)cnc(F)c4C3)n2)cn1` [compound 83], the IC50 in test [1] and in test [2] was over 1000 nM each time.

For `CCOc1ccc(-c2cncc(C(=O)N[C@@H]3Cc4c(OC)cnc(F)c4C3)n2)cn1` [compound 84], the values for the half-inhibitory concentration (IC50) in test [1] and in test [2] were over 1000 nM and under 500 nM, respectively.

Take `CCOc1ccc(-c2cncc(C(=O)NCc3ncc4ccc(OC)cn34)n2)cn1` [compound 85]: the IC50 in test [1] and in test [2] was over 1000 nM throughout.

With `CCOc1ccc(-c2cncc(C(=O)NCc3cnc4ccc(OC)cn34)n2)cn1` [compound 86], the IC50 in test [1] and in test [2] was over 1000 nM throughout.

With `[2H]C([2H])([2H])Oc1ccc(-c2cncc(C(=O)NCCc3ccccc3F)n2)cn1` [compound 89], the IC50 in test [1] was over 1000 nM; in test [2], under 500 nM.

On to `[2H]C([2H])([2H])Oc1ccc(-c2cncc(C(=O)NCCc3cc(OC)cnc3F)n2)cn1` [compound 90], for which the IC50 in test [1] and in test [2] was over 1000 nM throughout.

For `[2H]C([2H])([2H])Oc1cc(OC([2H])([2H])[2H])cc([C@H](O)CNC(=O)c2cncc(-c3ccc(OC(F)F)nc3)n2)c1` [compound 91], the IC50 in test [1] is over 1000 nM; in test [2], under 500 nM.

Regarding `[2H]C([2H])([2H])Oc1cc(OC([2H])([2H])[2H])cc([C@H](O)CNC(=O)c2cncc(-c3ccc(OC([2H])([2H])[2H])nc3)n2)c1` [compound 92], the IC50 in test [1] and in test [2] was over 1000 nM each time.

Turning to `[2H]C([2H])([2H])Oc1ccc(-c2cncc(C(=O)NC[C@@H](O)c3cc(OC)cc(OC)c3)n2)cc1` [compound 93], the values for the IC50 in test [1] and in test [2] were over 1000 nM and under 500 nM, respectively.

Turning to `[2H]C([2H])([2H])Oc1ccc(-c2cncc(C(=O)NCCc3cc(OC)cnc3F)n2)cc1` [compound 94], the IC50 was over 1000 nM in test [1] and under 500 nM in test [2].

Turning to `[2H]C([2H])([2H])Oc1ccc(-c2cncc(C(=O)NCCc3cc(OC)cc(OC)c3)n2)cc1` [compound 95], the IC50 in test [1] was over 1000 nM; in test [2], under 500 nM.

For `[2H]C([2H])([2H])Oc1cc(OC([2H])([2H])[2H])cc([C@H](O)CNC(=O)c2cncc(-c3ccc(OC(F)F)cc3)n2)c1` [compound 96], the IC50 in test [1] is over 1000 nM; in test [2], under 500 nM.

Turning to `CCOc1ccc(-c2cc(C(=O)NCCc3cc(OC)cnc3F)cnn2)cc1` [compound 100], the IC50 in test [1] and in test [2] was over 1000 nM in each case.

Take `CCOc1ccc(-c2cnnc(C(=O)NCCc3cc(OC)cnc3F)c2)cc1` [compound 101]: the IC50 in test [1] and in test [2] was over 1000 nM throughout.

On to `CCOc1ccc(-c2cncc(C(=O)NCCc3cc(OC)cnc3F)c2)cc1` [compound 102], for which the IC50 in test [1] and in test [2] was over 1000 nM in each case.

Turning to `CCOc1ccc(-c2cccc(C(=O)NCCc3cc(OC)cnc3F)n2)cc1` [compound 103], the IC50 in test [1] and in test [2] was over 1000 nM each time.

As for `CCOc1ccc(-c2cc(C(=O)NCCc3cc(OC)cnc3F)ccn2)cc1` [compound 104], the IC50 in test [1] and in test [2] was over 1000 nM in each case.

For `CCOc1ccc(-c2ccnc(C(=O)NCCc3cc(OC)cnc3F)c2)cc1` [compound 105], the IC50 in test [1] was under 500 nM; in test [2], over 1000 nM.

As to `CCOc1ccc(-c2nccc(C(=O)NCCc3cc(OC)cnc3F)n2)cc1` [compound 106], the IC50 in test [1] and in test [2] was over 1000 nM each time.

For the compound `CCOc1ccc(-c2ccnc(C(=O)NCCc3cc(OC)cnc3F)n2)cc1` [compound 107], the IC50 was over 1000 nM in test [1] and 500 to 1000 nM in test [2].

As for `CCOc1ccc(-c2cccc(C(=O)NCCc3cc(OC)cnc3F)n2)cn1` [compound 108], the IC50 in test [1] and in test [2] was over 1000 nM each time.

On to `CCOc1ccc(-c2cc(C(=O)NCCc3cc(OC)cnc3F)ccn2)cn1` [compound 109], for which the IC50 in test [1] and in test [2] was over 1000 nM throughout.

Take `CCOc1ccc(-c2nccc(C(=O)NCCc3cc(OC)cnc3F)n2)cn1` [compound 110]: the IC50 in test [1] and in test [2] was over 1000 nM throughout.

Turning to `CCOc1ccc(-c2cc(C(=O)NCCc3cc(OC)cnc3F)cnn2)cn1` [compound 111], the IC50 in test [1] and in test [2] was over 1000 nM throughout.

As for `CCOc1ccc(-c2cnnc(C(=O)NCCc3cc(OC)cnc3F)c2)cn1` [compound 112], the IC50 in test [1] and in test [2] was over 1000 nM in each case.

For the compound `CCOc1ccc(-c2cncc(C(=O)NCCc3cc(OC)cnc3F)c2)cn1` [compound 113], the IC50 in test [1] and in test [2] was over 1000 nM in each case.

Consider `CCOc1ccc(-c2ccnc(C(=O)NCCc3cc(OC)cnc3F)c2)cn1` [compound 114], for which the IC50 in test [1] and in test [2] was over 1000 nM throughout.

Consider `CCOc1ccc(-c2ccnc(C(=O)NCCc3cc(OC)cnc3F)n2)cn1` [compound 115], for which the IC50 in test [1] and in test [2] was over 1000 nM each time.
